Source: ChEMBL document CHEMBL1201862, “PubChem BioAssay data set” (2004)
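These data come from cells grown in 96-well plates and exposed to compound for 48 hours at five concentrations. GI50: concentration for 50% inhibition of growth.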 Active and inactive are the calls of the source. Rule as the data show it: active = GI50 up to about 1.1 µM and inactive = higher.

Tests used:
Experiment in all cases: NCI tumour cell line growth inhibition, 48 h
[1] = tested on: MDA-N
[2] = tested on: Hs-578T
[3] = tested on: SNB-78
[4] = tested on: HOP-18
[5] = tested on: LXFL 529
[6] = tested on: M19-MEL
[7] = tested on: XF498
[8] = tested on: DLD-1

Row | SMILES | GI50 [1] | GI50 [2] | also measured
1 | O=C(O)CC(C(=O)O)c1ccccc1[N+](=O)[O-] (stereo not drawn) | > 100 µM (inactive) | 25.6 µM (inactive) | 
2 | NC(CCSCCF)C(=O)O (stereo not drawn) |  |  | GI50 [3]: > 100 µM (inactive); GI50 [4]: > 100 µM (inactive); GI50 [5]: > 100 µM (inactive); GI50 [6]: > 100 µM (inactive)
3 | c1ccc2c(c1)CCN1CCc3ccccc3C1C2 (stereo not drawn) | 12.4 µM (inactive) | 68.5 µM (inactive) | 
4 | O=C(Nc1cccc(O)c1)C(=O)C(C(=O)c1ccc(Cl)c(Cl)c1)C1OC(=O)c2ccccc21 (stereo not drawn) |  |  | GI50 [3]: 7.08 µM (inactive); GI50 [4]: 25.5 µM (inactive); GI50 [5]: 12.2 µM (inactive); GI50 [6]: 12.4 µM (inactive); GI50 [7]: 10.9 µM (inactive)
5 | C=C1CC2(CC(c3ccccc3Cl)OC(c3ccccc3Cl)C2)OC1=O (stereo not drawn) | 1.87 µM (inactive) | 1.88 µM (inactive) | 
6 | NCC1CCCCC1.O=C(O)NCC1CCCCC1 | 15.9 µM (inactive) |  | 
7 | CC1=CC2=C(C#N)C(=O)OC2(C)C(c2ccccc2)C1 (stereo not drawn) | > 100 µM (inactive) | > 100 µM (inactive) | 
8 | CN(CCCCN1CCCC1)CCCCN(C)C(=O)Cc1ccc(Cl)c(Cl)c1 | 3.56 µM (inactive) | 19.5 µM (inactive) | 
9 | NNC(=O)N/N=C1\CNC(=O)C(=O)C1c1nc2ccccc2s1 (stereo not drawn) |  |  | GI50 [3]: > 100 µM (inactive); GI50 [8]: > 100 µM (inactive); GI50 [5]: > 100 µM (inactive); GI50 [6]: > 100 µM (inactive); GI50 [7]: > 100 µM (inactive)
10 | OC1CN(OC/C=C/c2ccccc2)CC(O)C1O (stereo not drawn) |  |  | GI50 [3]: > 100 µM (inactive); GI50 [8]: 87.3 µM (inactive); GI50 [4]: > 100 µM (inactive); GI50 [5]: 60.1 µM (inactive); GI50 [6]: > 100 µM (inactive); GI50 [7]: > 100 µM (inactive)
11 | O=C(NO)NCCCl | > 100 µM (inactive) | > 100 µM (inactive) | 
12 | Cc1cccc(C)c1NC(=O)CCCC(=O)C(C#N)c1ccc(Cl)cc1 (stereo not drawn) |  |  | GI50 [3]: > 100 µM (inactive); GI50 [8]: > 100 µM (inactive); GI50 [4]: > 100 µM (inactive); GI50 [5]: > 100 µM (inactive); GI50 [6]: > 100 µM (inactive)
13 | CC(=O)Nc1ccc2c3c(cc(O)c2c1)N(C(=O)CCCCCCC(=O)N1CC(CCl)c2c1cc(O)c1cc(NC(C)=O)ccc21)CC3CCl (stereo not drawn) | < 0.01 µM (active) | 0.0306 µM (active) | 
14 | Oc1cccc2c1NC1=C(CCC/C1=C\c1ccccc1)C2 |  |  | GI50 [5]: 89.5 µM (inactive); GI50 [6]: 55.8 µM (inactive); GI50 [7]: 57.1 µM (inactive)
15 | CSCC(COC(C)=O)(CSC)c1ccncc1 |  |  | GI50 [3]: > 100 µM (inactive); GI50 [5]: > 100 µM (inactive); GI50 [6]: > 100 µM (inactive)
16 | COc1ccc(C(C)NNC(=O)c2ccncc2)cc1OC (stereo not drawn) | > 100 µM (inactive) | > 100 µM (inactive) | 
17 | N#Cc1cccc(Nc2ccccc2SSc2ccccc2Nc2cccc(C#N)c2)c1 | 9.23 µM (inactive) | 6.97 µM (inactive) | 

Row | SMILES | GI50 [1] | GI50 [2] | also measured
18 | COC(=O)C1=C(C(=O)OC)N(c2ccc(OC)cc2[N+](=O)[O-])C(c2ccc(C)cc2)=CC1c1ccc(OC)cc1OC (stereo not drawn) | 4.62 µM (inactive) | 31.7 µM (inactive) | 
19 | Cc1nc(N)nc(S)c1CCC(=O)O | > 100 µM (inactive) | > 100 µM (inactive) | 
20 | CCCN1CC=C(c2cc(C(=O)OCC)[nH]c2-c2cc(C)no2)C1=O | > 100 µM (inactive) | > 100 µM (inactive) | 
21 | COc1c(OC)c(N)c2cc(C)c(=O)c(C)cc2c1N |  |  | GI50 [3]: > 100 µM (inactive); GI50 [8]: 55.7 µM (inactive); GI50 [4]: > 100 µM (inactive); GI50 [5]: 64.9 µM (inactive); GI50 [6]: > 100 µM (inactive); GI50 [7]: > 100 µM (inactive)
22 | CCOC(=O)C1CCC/C1=N\NC(=N)N.Cc1cc(O)c(C(C)C)cc1S(=O)(=O)O (stereo not drawn) | > 100 µM (inactive) | > 100 µM (inactive) | 
23 | c1ccc2c(c1)nc1n2C2CCC(C2)N1 (stereo not drawn) | > 10 µM (inactive) | > 10 µM (inactive) | 
24 | CCn1c2ccccc2c2cc(Nc3cc(C)[nH]c(=O)n3)ccc21 | 0.394 µM (active) |  | 
25 | Nc1ccc2[nH]cc(CCC(=O)O)c2c1 | > 100 µM (inactive) | > 100 µM (inactive) | 
26 | O=[N+]([O-])c1ccc2c(c1)Nc1c3ccccc3nc3cccc-2c13 | 3.62 µM (inactive) | 6.53 µM (inactive) | 
27 | S=C(S)NCNC(=S)S | > 100 µM (inactive) | > 100 µM (inactive) | 
28 | COc1nc(OC)nc(Sc2ccc(Sc3ccc(Sc4nc(OC)nc(OC)n4)cc3)cc2)n1 |  |  | GI50 [3]: > 100 µM (inactive); GI50 [8]: > 100 µM (inactive); GI50 [4]: > 100 µM (inactive); GI50 [5]: > 100 µM (inactive); GI50 [6]: > 100 µM (inactive); GI50 [7]: > 100 µM (inactive)
29 | CCCCCCCCCCCCc1ccsc1-c1ccc(-c2ccc(-c3sc(-c4cc(CCCCCCCCCCCC)c(-c5ccc(-c6ccc(-c7sccc7CCCCCCCCCCCC)s6)s5)s4)cc3CCCCCCCCCCCC)s2)s1 |  | > 100 µM (inactive) | 
30 | CCOC(=O)c1c(C)[nH]c2c1c(CN(C)C)c(O)c1nc(C)c(C)nc12 | 19.2 µM (inactive) | 22.8 µM (inactive) | 
31 | Cc1c(N2CCCC2)cc2c(c1NC(=O)c1ccccc1Cl)C(C)(C)CC2(C)C | 13.9 µM (inactive) | 16.7 µM (inactive) | 
32 | Nc1ccccc1N/C(=C\C(=O)C(Cl)(Cl)Cl)c1ccccc1 | 18.1 µM (inactive) | 29.6 µM (inactive) | 
33 | CCSc1nnc(Sc2c3ccccc3nc3ccccc23)s1 | 6.68 µM (inactive) | 32.7 µM (inactive) | 
